Read-outs that look alike come from different tables or passages of the source.
Experiments:
Type in all cases: cell-based
Her2 [1] = target: T1, Her2 (Homo sapiens, UniProt P04626); test: HER-2 ELISA: EGF receptor-HER2 chimeric receptor assay in whole cells (HER2 kinase); conditions: NIH3T3 cells with EGFR/HER2 chimeric receptor, phosphotyrosine ELISA
T1 construct: fused on or other part: P00533 (Epidermal growth factor receptor)
Outline: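 NIH3T3 cells expressing an EGFR extracellular/HER2 kinase-domain chimera, serum-reduced (0.5%), pretreated 2 h with compound (1% DMSO final), then stimulated 5 min with 100 nM EGF at room temperature. Lysate phosphotyrosine quantified by anti-pTyr ELISA, OD 410 nm; % inhibition after negative-control subtraction.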

Her2 [2] = target: T1, Her2; test: EGF-induced Her2-driven BrdU incorporation; conditions: 3T3 cells with EGF-R/Her2 chimeric receptor, EGF 2 nM, read-out: BrdU DNA syn. HER2 IC50
Description: (§1) The cellular/biologic assays described herein measure the amount of DNA made in response to activation of a test kinase, which is a general measure of a proliferative response. The general procedure for this assay is as follows: a compound is introduced to cells expressing the test kinase, either naturally or recombinantly, for some period of time after which, if the test kinase is a receptor, a ligand known to activate the receptor is added. After incubation at least overnight, a DNA labeling reagent such as Bromodeoxy-uridine (BrdU) or 3H-thymidine is added. The amount of labeled DNA is detected with either an anti-BrdU antibody or by measuring radioactivity and is compared to control cells not contacted with a test compound.
EGF-Induced Her2-Driven BrdU Incorporation
(8) 3T3 cell line engineered to express a chimeric receptor having the extra-cellular domain of EGF-R and the intra-cellular domain of Her2.
(1) Cells are seeded at 8000 cells/well in DMEM, 10% CS, 2 mM Gln in a 96-well plate. Cells are incubated overnight at 37° C. in 5% CO2.
(§2) (2) After 24 hours, the cells are washed with PBS, and then are serum starved in serum free medium (0% CS DMEM with 0.1% BSA) for 24 hours.
(§3) (3) On day 3, ligand (EGF=2 nM, prepared in DMEM with 0.1% BSA) and test compounds are added to the cells simultaneously. The negative control wells receive serum free DMEM with 0.1% BSA only; the positive control cells receive the ligand (EGF) but no test compound. Test compounds are prepared in serum free DMEM with ligand in a 96 well plate, and serially diluted for 7 test concentrations.
(4) After 20 hours of ligand activation, diluted BrdU labeling reagent (1:100 in DMEM, 0.1% BSA) is added and the cells are incubated with BrdU (final concentration=[…]) for 1.5 hours.
(§4) (10) The absorbance of the samples are measured at 410 nm (in “dual wavelength” mode with a filter reading at 490 nm, as a reference wavelength) on a Dynatech ELISA plate reader.

PDGFR = PDGFR (Homo sapiens, UniProt P09619); test: PDGF-induced BrdU incorporation assay; design: expressed in transfected cells; host or cells: 3T3; conditions: 3T3 cells expressing human PDGF-R, PDGF 3.8 nM
Description: as §1
PDGF-Induced BrdU Incorporation Assay
(8) 3T3 cell line genetically engineered to express human PDGF-R.
(1) Cells are seeded at 8000 cells/well in DMEM, 10% CS, 2 mM Gln in a 96 well plate. Cells are incubated overnight at 37° C. in 5% CO2.
as §2
as §3, with “(PDGF, 3.8” for “(EGF=2”, “(PDGF)” for “(EGF)”
(4) After 20 hours of ligand activation, diluted BrdU labeling reagent (1: 100 in DMEM, 0.1% BSA) is added and the cells are incubated with BrdU (final concentration=10 μM) for 1.5 hours.
as §4

[3] = Table 7, read-out: BrdU DNA syn. PDGFr IC50
[4] = Table 5, read-out: BrdU DNA syn. PDFGr IC50

PDGFR, sequence (P09619 33-1106): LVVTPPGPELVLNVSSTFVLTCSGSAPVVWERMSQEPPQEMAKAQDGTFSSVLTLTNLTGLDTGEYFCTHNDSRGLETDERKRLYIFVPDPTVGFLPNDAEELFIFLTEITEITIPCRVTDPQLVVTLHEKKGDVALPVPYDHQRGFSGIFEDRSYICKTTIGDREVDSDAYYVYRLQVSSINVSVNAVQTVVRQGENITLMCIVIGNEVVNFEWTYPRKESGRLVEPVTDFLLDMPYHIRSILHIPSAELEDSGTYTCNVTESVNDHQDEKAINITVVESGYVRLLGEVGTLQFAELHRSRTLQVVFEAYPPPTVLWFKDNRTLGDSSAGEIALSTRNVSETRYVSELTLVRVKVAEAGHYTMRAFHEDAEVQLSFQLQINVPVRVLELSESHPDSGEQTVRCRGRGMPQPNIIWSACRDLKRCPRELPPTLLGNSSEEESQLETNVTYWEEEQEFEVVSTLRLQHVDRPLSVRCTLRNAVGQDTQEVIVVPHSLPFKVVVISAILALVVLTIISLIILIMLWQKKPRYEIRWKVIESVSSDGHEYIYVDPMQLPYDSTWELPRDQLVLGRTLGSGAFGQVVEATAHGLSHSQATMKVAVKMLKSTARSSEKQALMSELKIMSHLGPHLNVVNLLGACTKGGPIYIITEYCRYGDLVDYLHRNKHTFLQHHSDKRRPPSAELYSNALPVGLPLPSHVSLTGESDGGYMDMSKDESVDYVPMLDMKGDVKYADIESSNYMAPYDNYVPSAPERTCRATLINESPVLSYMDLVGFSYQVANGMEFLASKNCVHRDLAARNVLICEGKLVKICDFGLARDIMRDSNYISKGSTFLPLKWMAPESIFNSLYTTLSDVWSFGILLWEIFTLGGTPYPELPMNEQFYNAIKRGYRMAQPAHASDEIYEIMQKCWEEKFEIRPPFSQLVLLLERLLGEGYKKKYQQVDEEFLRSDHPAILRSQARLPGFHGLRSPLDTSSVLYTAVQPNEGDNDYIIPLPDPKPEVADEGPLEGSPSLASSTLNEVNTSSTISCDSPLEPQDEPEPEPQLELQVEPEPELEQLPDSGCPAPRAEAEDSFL
T1 sequence (P04626 676-1255 limits assumed): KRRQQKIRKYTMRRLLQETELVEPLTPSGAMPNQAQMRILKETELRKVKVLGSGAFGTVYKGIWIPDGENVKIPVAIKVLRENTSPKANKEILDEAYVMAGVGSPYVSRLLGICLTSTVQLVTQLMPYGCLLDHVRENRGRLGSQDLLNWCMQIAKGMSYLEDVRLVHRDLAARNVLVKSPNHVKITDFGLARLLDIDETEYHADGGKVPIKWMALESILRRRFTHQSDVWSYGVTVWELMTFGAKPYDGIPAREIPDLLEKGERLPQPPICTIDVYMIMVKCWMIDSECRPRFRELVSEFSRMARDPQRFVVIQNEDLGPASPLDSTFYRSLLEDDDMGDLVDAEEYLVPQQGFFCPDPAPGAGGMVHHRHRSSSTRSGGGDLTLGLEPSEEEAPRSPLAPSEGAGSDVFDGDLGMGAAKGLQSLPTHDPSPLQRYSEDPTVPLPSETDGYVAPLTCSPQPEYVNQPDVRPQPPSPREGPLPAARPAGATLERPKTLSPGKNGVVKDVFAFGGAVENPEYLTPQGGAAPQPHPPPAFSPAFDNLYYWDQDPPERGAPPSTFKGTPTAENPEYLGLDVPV

IC50 (Her2 [1]; Table 7) [µM] | IC50 (Her2 [2]; Table 7) [µM] | IC50 (PDGFR; [3]) [µM] | IC50 (Her2 [1]; Table 5) [µM] | IC50 (Her2 [2]; Table 5) [µM] | IC50 (PDGFR; [4]) [µM] | Compound
> 100 | > 50 | > 50 |  |  |  | Cc1ccc(O)c(C=C2C(=O)Nc3cccc(CCO)c32)n1 (racemic) [IN-022, 4-(2-Hydroxy-ethyl)-3-(3-hydroxy-6-methyl-pyridin-2-ylmethylene)-1,3-dihydro-indol-2-one]
 |  |  | 16.4 | 32.7 | 32.7 | COc1ccc(CC2C(=O)Nc3ccc(F)cc32)cc1C1CCCC1 (stereo not drawn) [AAI-5, 3-(3-Cyclopentyl-4-methoxybenzyl)-5-fluoro-1,3-dihydroindol-2-one]
 |  |  | > 100 | 27.3 | > 50 | COc1ccc(CC2C(=O)Nc3cc(NC(C)=O)ccc32)cc1-c1cccs1 (stereo not drawn) [AAI-6, N-[3-(4-Methoxy-3-thiophen-2-ylbenzyl)-2-oxo-2,3-dihydro-1H-indol-6-yl]-acetamide]
 |  |  | > 100 | 6.8 | 31.1 | CC(=O)Nc1ccc2c(c1)NC(=O)C2Cc1ccc(OCCN2CCOCC2)c(C2CCCCC2)c1 (stereo not drawn) [AAI-7, N-{3-[3-Cyclohexyl-4-(2-morpholin-4-ylethoxy)-benzyl]-2-oxo-2,3-dihydro-1H-indol-6-yl}-acetamide]
 |  |  | > 100 | 11.5 | > 50 | COc1ccc(CC2C(=O)Nc3ccc(CCN4CCOCC4)cc32)cc1-c1ccsc1 (stereo not drawn) [AAI-8, 3-(4-Methoxy-3-thiophen-3-ylbenzyl)-5-(2-morpholin-4-ylethyl)-1,3-dihydroindol-2-one]
 |  |  | 22.2 | 34.1 | > 50 | COc1c(C(C)C)cc(CC2C(=O)Nc3ccccc32)cc1C(C)C (stereo not drawn) [AAI-10, 3-(3,5-Diisopropyl-4-methoxybenzyl)-1,3-dihydroindol-2-one]
 |  |  | > 100 | > 50 | > 50 | O=C1Nc2ccc(F)cc2C1Cc1ccc(O)c(C2CCCC2)c1 (stereo not drawn) [AAI-11, 3-(3-Cyclopentyl-4-hydroxybenzyl)-5-fluoro-1,3-dihydroindol-2-one]
 |  |  | > 100 | > 50 | > 50 | COc1cccc(-c2ccc3c(c2)NC(=O)C3Cc2ccccc2O)c1 (stereo not drawn) [AAI-13, 3-(2-Hydroxybenzyl)-6-(3-methoxyphenyl)-1,3-dihydroindol-2-one]
 |  |  | > 100 | > 50 | > 50 | Cc1cccc2c1C(Cc1ccc3[nH]ccc3c1)C(=O)N2 (stereo not drawn) [AAI-16, 3-(1H-Indol-5-ylmethyl)-4-methyl-1,3-dihydroindol-2-one]
 |  |  | > 100 | > 50 | > 50 | O=C1Nc2ccccc2C1Cc1ccc2[nH]ccc2c1 (stereo not drawn) [AAI-17, 3-(1H-Indol-5-ylmethyl)-1,3-dihydroindol-2-one]
 |  |  | 28.5 | > 50 | 3.87 | Cc1[nH]c(CC2C(=O)Nc3ccccc32)c(C)c1CCCN(C)C (stereo not drawn) [AAI-18, 3-[4-(3-Dimethylaminopropyl)-3,5-dimethyl-1H-pyrrol-2-ylmethyl]-1,3-dihydroindol-2-one]
 |  |  | 20.9 | 29.2 | 8.81 | COc1ccccc1-c1ccc2c(c1)NC(=O)C2Cc1[nH]c(C)c(CCCN(C)C)c1C (stereo not drawn) [AAI-20, 3-[4-(3-Dimethylamino-propyl)-3,5-dimethyl-1H-pyrrol-2-ylmethyl]-6-(2-methoxy-phenyl)-1,3-dihydro-indol-2-one]
 |  |  | 52.9 | > 50 | 1.2 | COc1cccc(-c2ccc3c(c2)NC(=O)C3Cc2[nH]c(C)c(CCCN(C)C)c2C)c1 (stereo not drawn) [AAI-21, 3-[4-(3-Dimethylaminopropyl)-3,5-dimethyl-1H-pyrrol-2-ylmethyl]-6-(3-methoxyphenyl)-1,3-dihydroindol-2-one]
 |  |  | 21.4 | > 50 | 1.15 | COc1ccc(-c2ccc3c(c2)NC(=O)C3Cc2[nH]c(C)c(CCCN(C)C)c2C)cc1 (stereo not drawn) [AAI-22, 3-[4-(3-Dimethylaminopropyl)-3,5-dimethyl-1H-pyrrol-2-ylmethyl]-6-(4-methoxyphenyl)-1,3-dihydroindol-2-one]
 |  |  | 54.1 | > 50 | 0.35 | Cc1[nH]c(CC2C(=O)Nc3ccc(Cl)cc32)c(C)c1CCCN(C)C (stereo not drawn) [AAI-23, 5-Chloro-3-[4-(3-dimethylaminopropyl)-3,5-dimethyl-1H-pyrrol-2-ylmethyl]-1,3-dihydroindol-2-one]
 |  |  | 26.1 | 30.9 | > 50 | O=C1Nc2cc(-c3ccccc3)ccc2C1Cc1cccc(F)c1O (stereo not drawn) [AAI-24, 3-(3-Fluoro-2-hydroxybenzyl)-6-phenyl-1,3-dihydroindol-2-one]
 |  |  | > 100 | > 50 | > 50 | COc1ccc(CC2C(=O)Nc3cc(-c4ccccc4)ccc32)c(O)c1 (stereo not drawn) [AAI-25, 3-(2-Hydroxy-4-methoxybenzyl)-6-phenyl-1,3-dihydroindol-2-one]
 |  |  | > 100 | > 50 | > 50 | Cc1cccc(CC2C(=O)Nc3cccc(CCO)c32)n1 (stereo not drawn) [AAI-27, 4-(2-Hydroxyethyl)-3-(6-methylpyridin-2-ylmethyl)-1,3-dihydroindol-2-one]
16.6 | 28.9 | 35.2 |  |  |  | CC(C)c1cccc(OCCc2cccc3c2CC(=O)N3)c1 [IN-001, 4-[2-(3-Isopropyl-phenoxy)-ethyl]-1,3-dihydro-indol-2-one]
18 | 30 | 37.1 |  |  |  | CC(C)c1ccccc1OCCc1cccc2c1CC(=O)N2 [IN-002, 4-[2-(2-Isopropyl-phenoxy)-ethyl]-1,3-dihydro-indol-2-one]
15.5 | 12.1 | 22 |  |  |  | O=C1Cc2c(CCOc3cccc(-c4ccccc4)c3)cccc2N1 [IN-003, 4-[2-(Biphenyl-3-yloxy)-ethyl]-1,3-dihydro-indol-2-one]
10.6 | 3.6 | 3.3 |  |  |  | O=C1Nc2cccc(CCO)c2/C1=C\c1ccc(Br)cc1 [IN-004, 3-(4-Bromo-benzylidene)-4-(2-hydroxy-ethyl)-1,3-dihydro-indol-2-one]
12.9 | 1.6 | 1.7 |  |  |  | O=C1Nc2cccc(CCO)c2/C1=C/c1ccccn1 [IN-005, 4-(2-Hydroxy-ethyl)-3-pyridin-2-ylmethylene-1,3-dihydro-indol-2-one]
10.6 | 6.6 | 4.6 |  |  |  | Cc1cccc(/C=C2\C(=O)Nc3cccc(CCO)c32)n1 [IN-006]
8.5 | 2.3 | 5.5 |  |  |  | COc1ccc(/C=C2\C(=O)Nc3cccc(CCO)c32)cc1-c1cccs1 [IN-008, 4-(2-Hydroxy-ethyl)-3-(4-methoxy-3-thiophen-2-yl-benzylidene)-1,3-dihydro-indol-2-one]
> 100 | 33.8 | 23.6 |  |  |  | Cc1[nH]c(/C=C2\C(=O)Nc3cccc(CCOc4cccc(C(C)C)c4)c32)c(C)c1CCCN(C)C [IN-023]
> 100 | > 50 | 49.6 |  |  |  | Cc1[nH]c(/C=C2\C(=O)Nc3cccc(CCOc4ccc(C(C)C)cc4)c32)c(C)c1CCC(=O)O [IN-024, 3-(5-{4-[2-(4-Isopropyl-phenoxy)-ethyl]-2-oxo-1,2-dihydro-indol-3-ylidenemethyl}-2,4-dimethyl-1H-pyrro-3-yl)-propionic acid]

Source: patent US6689806B1, “Indolinone compounds as kinase inhibitors” (Sugen, Inc., priority 1999, dated 2004)
